Calls of active or inactive are those of the source. Rule as the data show it, for most assays here: actives have a measured EC50 and inactives only a lower limit.
Assays:
Cytochrome P450 1A2 = target: T1, Cytochrome P450 1A2 (Homo sapiens, UniProt P05177);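 also: PubChem cytochrome P450 panel assay, CYP1A2 panel member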
T1 sequence (P05177 whole entry): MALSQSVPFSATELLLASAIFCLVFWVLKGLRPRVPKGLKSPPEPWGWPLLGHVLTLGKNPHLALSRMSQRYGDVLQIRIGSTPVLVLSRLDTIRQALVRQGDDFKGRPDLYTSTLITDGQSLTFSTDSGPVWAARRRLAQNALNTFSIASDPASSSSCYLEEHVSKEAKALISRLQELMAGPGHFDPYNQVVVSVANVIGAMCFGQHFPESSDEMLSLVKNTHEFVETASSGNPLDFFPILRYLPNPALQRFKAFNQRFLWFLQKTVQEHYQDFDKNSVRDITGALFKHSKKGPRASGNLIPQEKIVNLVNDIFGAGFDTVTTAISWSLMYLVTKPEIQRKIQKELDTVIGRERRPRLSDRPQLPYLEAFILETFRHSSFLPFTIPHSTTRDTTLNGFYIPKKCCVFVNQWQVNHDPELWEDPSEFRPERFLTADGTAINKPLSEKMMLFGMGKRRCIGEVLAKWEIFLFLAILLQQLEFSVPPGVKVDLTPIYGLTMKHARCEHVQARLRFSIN

[1] = inhibitors of intracellular T. cruzi replication, confirmation, NIH3T3 host cells, beta-gal luminescence (AID 2044); type: functional, cell-based;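 also: intracellular parasites grown in NIH/3T3 mouse fibroblasts as host cells; luminescent beta-galactosidase reporter signal from transgenic T. cruzi replicating inside host cells; inhibitors lower the luminescence signal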
[2] = cytotoxicity toward NIH3T3 fibroblasts, dose response, counter-screen, cell-based, ATP luminescence, mouse fibroblasts (AID 2010); type: functional;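 also: cells exposed to compound for about 90 hours before reading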
[3] = Luminescence Cell-Based Dose Retest to Confirm Inhibitors of Cancer Stem Cells. [Related pubchem assays (depositor defined):AID2717, AID2721]; type: functional; details: Homo sapiens
Streptokinase A = target: T2, Streptokinase A (Streptococcus pyogenes serotype M1, UniProt P10520); assay: S. pyogenes streptokinase expression inhibitors, potency, dose response, plasminogen activation absorbance, OD405 (AID 1914); type: functional, Streptococcus pyogenes M1 GAS;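 also: secreted streptokinase activity via plasminogen activation per viability signal from cell pellet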
T2 sequence (P10520 whole entry): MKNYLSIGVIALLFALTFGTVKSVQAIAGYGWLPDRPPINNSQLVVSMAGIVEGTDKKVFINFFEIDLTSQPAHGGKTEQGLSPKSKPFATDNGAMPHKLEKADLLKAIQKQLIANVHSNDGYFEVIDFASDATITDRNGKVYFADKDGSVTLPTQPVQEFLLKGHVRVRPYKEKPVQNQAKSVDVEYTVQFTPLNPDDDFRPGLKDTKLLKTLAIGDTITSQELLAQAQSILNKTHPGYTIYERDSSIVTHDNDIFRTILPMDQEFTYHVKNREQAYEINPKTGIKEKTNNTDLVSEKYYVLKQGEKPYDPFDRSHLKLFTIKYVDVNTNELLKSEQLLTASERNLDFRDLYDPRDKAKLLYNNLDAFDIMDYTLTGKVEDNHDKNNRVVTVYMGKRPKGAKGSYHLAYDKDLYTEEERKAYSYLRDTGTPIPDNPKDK

Streptococcus = assay: Group A Streptococcus viability loss, dose response, counter-screen for streptokinase expression inhibitor project, luminescence, BacTiterGlo (AID 1915); type: functional, organism-based;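 also: potency for reduction of bacterial viability or growth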
[4] = test system: Streptococcus sp. 'group A'; assay: growth inhibition of control SK(-) GAS strain, dose response, counter-screen for streptokinase expression inhibitor project, luminescence, kanamycin, BacTiterGlo, confirmation (AID 1900); type: functional, organism-based
[5] = Luminescence Cell-Based Dose Response HTS to Identify Activators of Luciferase Translation or Activity in H4 […] Cells. [Related pubchem assays: 1829 (Project Summary), 1814 (Primary HTS)]; type: functional
H4 = assay: Luminescence Cell-Based Dose Response HTS to Identify Activators of 5'UTR Stem-Loop Driven Prion Protein mRNA Translation in H4 Neuroglioblastoma Cells. [Related pubchem assays: 1829 (Project Summary), 1814 (Primary HTS)]; type: functional; details: Homo sapiens
Cytochrome P450 2C9 = Cytochrome P450 2C9 (Homo sapiens, UniProt P11712)
Cytochrome P450 2C9, sequence (P11712 whole entry): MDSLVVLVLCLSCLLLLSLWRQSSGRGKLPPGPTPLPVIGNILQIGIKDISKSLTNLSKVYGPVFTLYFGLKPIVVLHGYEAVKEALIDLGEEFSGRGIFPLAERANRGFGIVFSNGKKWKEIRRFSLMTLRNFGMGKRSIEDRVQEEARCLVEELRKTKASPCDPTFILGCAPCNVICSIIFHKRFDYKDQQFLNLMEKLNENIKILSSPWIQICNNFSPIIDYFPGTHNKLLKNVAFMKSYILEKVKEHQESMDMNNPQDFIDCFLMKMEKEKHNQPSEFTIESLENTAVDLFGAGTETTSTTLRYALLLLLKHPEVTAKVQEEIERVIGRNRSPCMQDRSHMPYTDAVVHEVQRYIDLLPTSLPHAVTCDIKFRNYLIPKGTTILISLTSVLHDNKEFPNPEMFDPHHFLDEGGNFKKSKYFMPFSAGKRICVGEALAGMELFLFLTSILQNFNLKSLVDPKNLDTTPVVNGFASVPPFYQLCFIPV

## CCSc1nnc(NC(=O)COc2ccc3ccccc3c2)s1
Cytochrome P450 1A2
  AC50: 10 µM (inconclusive)

## CN1CCc2c(sc(NC(=O)c3cc4cc([N+](=O)[O-])ccc4s3)c2C(N)=O)C1
[1]
  EC50: 1.73 µM (active)
[2]
  EC50: 14.3 µM (active)

## COc1ccc(OCC(=O)Nc2ccc(Cl)cc2C(=O)c2ccccc2)cc1
Cytochrome P450 1A2
  AC50: 3.55 µM (inconclusive)

## CC(C)(C)c1ccc(Cn2nnc3c(O)nc(C4CCCN(C(=O)c5cccs5)C4)nc32)cc1 (stereo not drawn)
[3]
  AC50: 10.6 µM (active)

## CC(C)(C)c1ccc(C(=O)NCc2nnc(SCC(=O)NC3CCCC3)o2)cc1
Streptokinase A
  EC50: > 150 µM (inconclusive)
Streptococcus
  EC50: > 150 µM (not active)
[4]
  EC50: > 150 µM (not active)

## COc1ccc(Nc2nc(NC(C)(C)C)nc(N3CCOCC3)n2)c(OC)c1
[1]
  EC50: 1.59 µM (active)
[2]
  EC50: > 60 µM (not active)

## O=S(=O)(O)c1cc(/N=N\c2cccc3ccccc23)c(O)c2ncccc12
Cytochrome P450 1A2
  AC50: 0.631 µM (inconclusive)

## CCOC(=O)c1ccc(NC(=S)N(Cc2cccnc2)Cc2ccco2)cc1
[1]
  EC50: 0.631 µM (active)
[2]
  EC50: > 60 µM (not active)

## COc1ccccc1NC(=O)NCCCCc1ccccc1
Streptokinase A
  EC50: > 150 µM (not active)
Streptococcus
  EC50: > 150 µM (not active)
[4]
  EC50: > 150 µM (not active)

## CC(=O)c1c(C)[nH]c(C(=O)Nc2nccs2)c1C
[5]
  EC50: > 120 µM (not active)
H4
  EC50: > 120 µM (not active)

## Nc1ccc(-c2ccc(N)cc2C(F)(F)F)c(C(F)(F)F)c1
Streptokinase A
  EC50: 76.8 µM (active)
Streptococcus
  EC50: > 150 µM (not active)
[4]
  EC50: 31 µM (active)

## O=C(COc1ccccc1)Nc1cccc(-c2nc3ccccc3[nH]2)c1
Streptokinase A
  EC50: > 150 µM (not active)
Streptococcus
  EC50: > 150 µM (not active)
[4]
  EC50: 22.7 µM (active)

## O=C(CC(NS(=O)(=O)c1ccc(Cl)cc1)c1ccco1)NCc1ccco1 (stereo not drawn)
Cytochrome P450 1A2
  AC50: 25.1 µM (inconclusive)

## O=C(c1cc(COc2cccc3cnccc23)on1)N1CCC(c2ccccc2Cl)C1 (stereo not drawn)
[1]
  EC50: 1.57 µM (active)
[2]
  EC50: > 60 µM (not active)

## O=C(c1ccncc1)N1CCC2(CCCN(c3cccc(-c4ccccc4)c3)C2)CC1
Cytochrome P450 1A2
  AC50: 12.6 µM (inconclusive)

## Cc1cc(C)cc(NC(S)=NCCSc2ccc(Cl)cc2)c1
Streptokinase A
  EC50: 15.9 µM (active)
Streptococcus
  EC50: > 150 µM (not active)
[4]
  EC50: 11.8 µM (active)

## Cc1c([N+](=O)[O-])nnn1-c1cc(Cl)cc(Cl)c1
[1]
  EC50: 1.86 µM (active)
[2]
  EC50: > 30 µM (not active)

## Cc1cc(C)c(-c2csc(NC(=O)COC(=O)c3ccc4c(c3)OCO4)n2)c(C)c1
[1]
  EC50: 4.69 µM (active)
[2]
  EC50: > 60 µM (not active)

## CN(C)Cc1nc2ccccc2c(=O)n1Cc1nc(-c2cc3ccccc3o2)cs1
Streptokinase A
  EC50: 104 µM (active)
Streptococcus
  EC50: > 150 µM (not active)
[1]
  EC50: 2.57 µM (active)
[2]
  EC50: > 30 µM (not active)
[4]
  EC50: 10.4 µM (active)

## Cc1cccc(-c2nnc(SCc3ccccc3)o2)c1
Cytochrome P450 2C9
  AC50: 39.8 µM (inconclusive)

## O=c1n(-c2ccc(Br)cc2)cnn1-c1ncccc1[N+](=O)[O-]
[5]
  EC50: 2.9 µM (active)
H4
  EC50: 17.3 µM (active)

## O=c1[nH]c2cc3c(cc2cc1CN(CCc1ccccc1)Cc1nnnn1CC1CCCO1)OCO3 (stereo not drawn)
Streptokinase A
  EC50: > 150 µM (not active)

## Oc1nc2cc3c(cc2cc1CN(CCc1ccccc1)Cc1nnnn1CC1CCCO1)OCO3 (stereo not drawn)
Streptococcus
  EC50: > 150 µM (not active)
[4]
  EC50: > 150 µM (not active)

## COc1ccc(C2c3ccsc3CCN2C(=O)C(C)(C)C)cc1 (stereo not drawn)
Streptokinase A
  EC50: > 150 µM (not active)
Streptococcus
  EC50: > 150 µM (not active)
[4]
  EC50: > 150 µM (not active)

## Cc1ccc2nc(N(CCCN(C)C)C(=O)c3ccc(Br)s3)sc2c1
[1]
  EC50: 0.102 µM (active)
[2]
  EC50: > 60 µM (not active)

## COC(=O)c1c(NC(=O)c2ccc(C)c(S(=O)(=O)Nc3ccccc3C)c2)sc2c1CCCC2
[3]
  AC50: 0.875 µM (active)

## Cc1cc2occ(CC(=O)NC3=NCCS3)c2cc1C(C)C
Streptokinase A
  EC50: > 150 µM (not active)
Streptococcus
  EC50: > 150 µM (not active)
[4]
  EC50: 71.7 µM (active)

## O=[N+]([O-])c1ccc(N2CCN(S(=O)(=O)c3ccc(Cl)cc3)CC2)cc1NCc1cccnc1
[1]
  EC50: 1.38 µM (active)
[2]
  EC50: 15.4 µM (active)

## Cc1ccc(C(=O)N2CCCC(CCC(=O)NCc3ccccc3F)C2)cn1 (stereo not drawn)
Streptokinase A
  EC50: > 150 µM (not active)
Streptococcus
  EC50: > 150 µM (not active)
[4]
  EC50: > 150 µM (not active)

## c1ccc(N2CCN(c3nc4cc5c(cc4s3)OCCO5)CC2)cc1
H4
  EC50: 46 µM (inconclusive)

## CCOC(=O)N1CCN(c2cc(N3CCN(CC)CC3)c(F)cc2[N+](=O)[O-])CC1C (stereo not drawn)
[1]
  EC50: 0.184 µM (active)
[2]
  EC50: > 60 µM (inconclusive)

## FC(F)(F)c1cc(-c2ccc(Cl)cc2)nc(NCc2cccnc2)n1
[1]
  EC50: 1.01 µM (active)
[2]
  EC50: > 60 µM (not active)
[3]
  AC50: 7.33 µM (active)

## O=c1c(Cl)c(NCc2ccccc2)cnn1C12CC3CC(CC(C3)C1)C2
[3]
  AC50: 1.16 µM (active)

## O=C(Nc1cccc(NC(=O)c2cccnc2)c1)c1ccccc1
Streptokinase A
  EC50: > 150 µM (not active)
Streptococcus
  EC50: > 150 µM (not active)
[4]
  EC50: > 150 µM (not active)

## Cc1ccc(C)c(-c2csc(N)c2C(=O)OC(C)C)c1
Streptokinase A
  EC50: 17 µM (active)
Streptococcus
  EC50: > 150 µM (not active)
[4]
  EC50: 9.04 µM (active)
[3]
  AC50: 6.66 µM (active)

## COc1cccc(-c2nnc(NC(=O)c3ccc(S(=O)(=O)N4CC(C)OC(C)C4)cc3)o2)c1 (stereo not drawn)
Streptococcus
  EC50: 2.15 µM (active)
[4]
  EC50: 1.3 µM (active)

## Cc1c(Cl)cnn1CC(=O)NC1C(=O)N2C(C(=O)O)=C(CSc3nnnn3C)CSC12 (stereo not drawn)
Streptococcus
  EC50: 0.283 µM (active)
[4]
  EC50: 0.1 µM (active)

## OC(COCC(F)(F)C(F)(F)C(F)(F)C(F)F)Cn1c2ccc(Cl)cc2c2cc(Cl)ccc21 (stereo not drawn)
Streptococcus
  EC50: 2.62 µM (active)
[4]
  EC50: 2.2 µM (active)

## COc1ccccc1CN1CC[C@@]2(CCCN(C(=O)c3cc(C(F)(F)F)cc(C(F)(F)F)c3)C2)C1
Cytochrome P450 1A2
  AC50: 15.8 µM (inconclusive)

## COCCNC(=O)CN(C(=O)CCC(=O)Nc1ccccn1)c1ccc(C)cc1
[3]
  AC50: > 195 µM (inactive)

## CCSc1nc2nc(C)cc(C)n2n1
Cytochrome P450 1A2
  AC50: 12.6 µM (inconclusive)

## O=S(=O)(Nc1ccc(-c2nnc(SCc3ccc(Cl)cc3)o2)cc1)c1ccccc1
[3]
  AC50: 3.31 µM (active)

## Cc1ccc(-n2c(SCC(=O)c3c(N)n(C)c(=O)n(C)c3=O)nc3sc4c(c3c2=O)CCCC4)c(C)c1
[1]
  EC50: 2.1 µM (active)
[2]
  EC50: 50.5 µM (active)

## CCOc1ccccc1CN1CCN(Cc2[nH]c3ccccc3c2C)CC1CCO (stereo not drawn)
[1]
  EC50: 0.204 µM (active)
[2]
  EC50: > 60 µM (not active)

## CCC[C@]12CN3C[C@](CCC)(CN(C1)C3c1ccccn1)C2=O (stereo partly drawn)
Streptococcus
  EC50: > 150 µM (not active)
[4]
  EC50: 43.8 µM (active)

## COc1cc(/C=C(/C#N)c2ccc(C)cc2)ccc1Oc1ccc([N+](=O)[O-])cn1
[1]
  EC50: 1.54 µM (active)
[2]
  EC50: > 60 µM (not active)

## OCCCNc1[nH]cnc2nncc1-2
Cytochrome P450 1A2
  AC50: 6.31 µM (inconclusive)

## CC1=C/C(=N\NC(=S)NCc2ccccc2)CC1
[1]
  EC50: 2.88 µM (active)
[2]
  EC50: > 60 µM (not active)

## CCCCC(C=O)NC(=O)C(CC(C)C)NC(=O)OCc1ccccc1 (stereo not drawn)
Cytochrome P450 1A2
  AC50: 31.6 µM (inconclusive)

## CCCOc1ccc(/C=N/Nc2cccc([N+](=O)[O-])c2)c(O)c1
[3]
  AC50: 1.76 µM (active)

## CCn1c(SCC(=O)N/N=C/C=C\c2ccccc2[N+](=O)[O-])nnc1-c1ccccc1
Cytochrome P450 1A2
  AC50: 28.2 µM (inconclusive)

## N#CC1=C(N)OC2=C(C(=O)CC(c3ccccc3)C2)C1c1cccnc1 (stereo not drawn)
[1]
  EC50: 0.111 µM (active)
[2]
  EC50: > 30 µM (not active)

## O=C(Nc1ccccc1)Nc1ccc(-n2ccc(C(F)(F)F)n2)cc1
[5]
  EC50: 0.648 µM (active)
H4
  EC50: > 120 µM (not active)

## CN(C)CCCN1c2ccccc2C(C)(C)c2ccccc21 [DIMETACRINE]
Cytochrome P450 1A2
  AC50: 5.01 µM (inconclusive)

Reference: ChEMBL document CHEMBL1201862, “PubChem BioAssay data set” (2004)
